Where a name gives a salt, the structure may show the parent alone. Residues, ends and D or L forms follow the SMILES beside them. *: point of attachment. Cbz = O=C(OCc1ccccc1)*
Assays:
CDK9 [1] = molecular target: T1, CDK9 (Homo sapiens, UniProt P50750); test: CDK9 degradation in MOLT4 cells; type: cell-based; conditions: for effect of pre-treatment on CDK9 degradation by 955: pre-treatment before 955
CDK10 [2] = molecular target: T2, CDK10 (Homo sapiens, UniProt Q15131); test: CDK10 degradation in MOLT4 cells; type: cell-based
T2 sequence (Q15131 whole entry): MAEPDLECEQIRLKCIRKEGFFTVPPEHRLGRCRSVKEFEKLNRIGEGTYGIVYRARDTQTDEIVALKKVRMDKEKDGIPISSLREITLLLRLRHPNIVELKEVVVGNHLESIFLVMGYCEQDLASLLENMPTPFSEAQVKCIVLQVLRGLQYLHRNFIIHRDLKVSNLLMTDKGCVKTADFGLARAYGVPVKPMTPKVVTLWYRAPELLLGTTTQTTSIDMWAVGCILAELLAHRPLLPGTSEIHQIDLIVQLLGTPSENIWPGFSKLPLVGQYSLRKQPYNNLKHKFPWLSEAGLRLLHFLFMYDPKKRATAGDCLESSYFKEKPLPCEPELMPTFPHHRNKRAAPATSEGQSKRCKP

EML4-ALK = EML4-ALK (Homo sapiens, UniProt Q9HC35+Q9UM73); test: EML4-ALK degradation in NCI-H2228 cells; type: cell-based; conditions: for effect of pre-treatment on EML4-ALK degradation induced by 819: NCI-H2228 cells
DU145 = test: Viability; type: cell-based, human
CDK9 [3] = conditions: read-out: IC50 CDK9; cited from earlier work
22RV1 = test: Viability; type: cell-based, human
LNCaP = test: Viability; type: cell-based, human
CDK10 [4] = molecular target: T2, CDK10; conditions: MOLT4 lysates; cited from earlier work
CDK9 [5] = molecular target: T1, CDK9; test: TMT-based global proteomics in MOLT4 cells, CDK9; type: cell-based
H1299 lung cancer cells = test: Cell killing in KEAP1 siRNA- vs control siRNA-treated H1299 cells; type: cell-based, human; conditions: 24 h treatment
PC3 = test: Viability; type: cell-based, human
[6] = tested on: LNCaP prostate cancer cells; test: Cell killing in KEAP1 siRNA- vs control siRNA-treated LNCaP cells; type: cell-based, human; conditions: 24 h treatment
[7] = molecular target: CDK9:955:KEAP1 ternary complex (Homo sapiens, UniProt P50750+Q14145); test: NanoBRET ternary complex formation assay in live 293T cells; type: cell-based; conditions: HiBit-CDK9 and Halo-KEAP1, 6 h
Sequence of CDK9:955:KEAP1 ternary complex (P50750 whole entry): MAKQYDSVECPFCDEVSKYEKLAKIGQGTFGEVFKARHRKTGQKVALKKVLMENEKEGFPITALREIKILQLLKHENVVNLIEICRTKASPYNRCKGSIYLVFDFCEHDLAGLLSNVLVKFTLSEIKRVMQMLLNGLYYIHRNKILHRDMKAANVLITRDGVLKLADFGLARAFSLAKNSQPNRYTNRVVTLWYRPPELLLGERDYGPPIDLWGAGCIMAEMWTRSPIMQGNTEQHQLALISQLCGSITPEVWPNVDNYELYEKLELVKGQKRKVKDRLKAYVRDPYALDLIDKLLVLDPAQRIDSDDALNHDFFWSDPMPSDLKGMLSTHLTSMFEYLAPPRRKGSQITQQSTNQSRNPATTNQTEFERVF
Sequence of CDK9:955:KEAP1 ternary complex (Q14145 whole entry): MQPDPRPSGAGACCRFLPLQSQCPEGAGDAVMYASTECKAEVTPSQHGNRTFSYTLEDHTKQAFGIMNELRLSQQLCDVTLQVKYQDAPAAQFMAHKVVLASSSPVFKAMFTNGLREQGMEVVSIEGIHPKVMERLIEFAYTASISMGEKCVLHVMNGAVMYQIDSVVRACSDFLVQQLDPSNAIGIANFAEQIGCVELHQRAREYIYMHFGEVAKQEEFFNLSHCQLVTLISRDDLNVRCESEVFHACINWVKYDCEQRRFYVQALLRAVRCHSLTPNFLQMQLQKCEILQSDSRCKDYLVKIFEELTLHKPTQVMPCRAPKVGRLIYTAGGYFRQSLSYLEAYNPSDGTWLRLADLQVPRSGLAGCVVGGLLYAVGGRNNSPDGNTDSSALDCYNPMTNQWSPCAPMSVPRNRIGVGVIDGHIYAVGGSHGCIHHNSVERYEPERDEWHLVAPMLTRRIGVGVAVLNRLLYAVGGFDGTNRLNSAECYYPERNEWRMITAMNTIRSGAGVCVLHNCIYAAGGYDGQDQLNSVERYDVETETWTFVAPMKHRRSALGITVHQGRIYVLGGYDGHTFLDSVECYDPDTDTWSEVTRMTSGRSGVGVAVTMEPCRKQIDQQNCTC
Sequence of CDK9:955:KEAP1 ternary complex (O60563 whole entry partner): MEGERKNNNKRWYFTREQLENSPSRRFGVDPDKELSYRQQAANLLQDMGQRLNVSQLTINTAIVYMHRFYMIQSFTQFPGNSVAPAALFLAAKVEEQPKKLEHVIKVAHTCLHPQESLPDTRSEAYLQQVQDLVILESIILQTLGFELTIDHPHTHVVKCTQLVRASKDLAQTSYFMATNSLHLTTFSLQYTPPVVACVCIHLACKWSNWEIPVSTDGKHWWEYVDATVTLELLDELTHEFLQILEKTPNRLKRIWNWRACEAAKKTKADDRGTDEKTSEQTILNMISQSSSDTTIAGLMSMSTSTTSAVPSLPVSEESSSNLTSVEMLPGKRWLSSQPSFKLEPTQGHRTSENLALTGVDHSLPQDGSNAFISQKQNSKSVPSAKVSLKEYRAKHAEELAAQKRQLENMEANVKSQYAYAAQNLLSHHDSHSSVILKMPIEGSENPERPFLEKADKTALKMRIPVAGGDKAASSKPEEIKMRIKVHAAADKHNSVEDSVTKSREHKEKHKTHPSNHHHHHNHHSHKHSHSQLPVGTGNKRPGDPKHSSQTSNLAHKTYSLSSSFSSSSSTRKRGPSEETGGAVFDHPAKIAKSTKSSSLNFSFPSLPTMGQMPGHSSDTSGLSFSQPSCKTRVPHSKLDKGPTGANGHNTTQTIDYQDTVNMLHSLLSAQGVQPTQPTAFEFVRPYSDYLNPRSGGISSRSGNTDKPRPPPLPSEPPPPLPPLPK

CDK9 [8] = conditions: cited from earlier work
[9] = tested on: CDK9-dependent transcription; test: RNA-seq in MOLT4 cells; type: cell-based, human; conditions: 6 h treatment, compared with SNS-032
CDK9 [10] = molecular target: T1, CDK9; test: CDK9 degradation in KEAP1 knockout / rescued H1299 cells; type: cell-based
c-Myc and MCL-1 [11] = test: c-Myc and MCL-1 expression in LNCaP cells; type: cell-based, human
CDK9 [12] = molecular target: T1, CDK9; test: CDK9 degradation in LNCaP cells; type: cell-based
V5-TurboID-CDK9 = V5-TurboID-CDK9 (Homo sapiens, UniProt P50750+Q14145); test: TurboID-bait assay in 293T cells; type: cell-based
Sequence of V5-TurboID-CDK9 (P50750 whole entry): as the sequence (P50750 whole entry) above
Sequence of V5-TurboID-CDK9 (Q14145 whole entry): as the sequence (Q14145 whole entry) above
Sequence of V5-TurboID-CDK9 (O60563 whole entry partner): as the sequence (O60563 whole entry partner) above

c-Myc and MCL-1 [13] = test: c-Myc and MCL-1 expression in MOLT4 cells; type: cell-based, human; conditions: mRNA and protein
MOLT4 cells = test: PARP cleavage; type: cell-based, human; conditions: compared with SNS-032
purified KEAP1 protein = purified KEAP1 protein (Homo sapiens, UniProt Q14145); test: Gel-based competitive ABPP assay with IA-alkyne; type: binding; conditions: serially diluted compound, purified His-KEAP1
Sequence of purified KEAP1 protein (Q14145 whole entry): as the sequence (Q14145 whole entry) above

[14] = PL or SNS-032 alone or their combination (Figure 1E)
[15] = 955 versus 336 with reduced Michael acceptors (Figure 2H)

T1 sequence (P50750 whole entry): as the sequence (P50750 whole entry) above

In the case of `CC1(C)CC[C@]2(C(=O)n3ccnc3)CC[C@]3(C)[C@H](C(=O)C=C4[C@@]5(C)C=C(C#N)C(=O)C(C)(C)[C@@H]5CC[C@]43C)[C@@H]2C1` [CDDO-IM], the “effect of pre-treatment on CDK9 degradation by 955” value (shortened to “effect … on CDK9 degradation by 955”) (CDK9 [1]) is reported as “blocks”.

For `NS(=O)(=O)OC[C@@H]1C[C@@H](n2ccc3c(N[C@H]4CCc5ccccc54)ncnc32)C[C@@H]1O` [MLN4924], the “effect of pre-treatment on CDK10 degradation induced by 955” value (CDK10 [2]) was “blocks”, the “effect of pre-treatment on EML4-ALK degradation induced by 819” value (shortened to “effect of pre-treatment … by 819”) (EML4-ALK) was “blocks” and the “effect … on CDK9 degradation by 955” value (CDK9 [1]) was “blocks”.

With `CCN(CC)CCCC(C)Nc1ccnc2cc(Cl)ccc12` (stereo not drawn) [chloroquine] the “effect … on CDK9 degradation by 955” value (CDK9 [1]) was “does not block”.

For `CC(C)(C)c1cnc(CSc2cnc(NC(=O)C3CCNCC3)s2)o1` [SNS-032, N-(5-(((5-(tert-butyl)oxazol-2-yl)methyl)thio)thiazol-2-yl)piperidine-4-carboxamide], the CDK10 degradation (CDK10 [2]) is given as “no effect”, the EC50 (DU145; Homo sapiens, DU-145, 72 h, read-out: EC50 (antiproliferative)) is given as over 100 nM and the IC50 (CDK9 [3]) is given as […]. The EC50 (22RV1; Homo sapiens, 22Rv1, 72 h, read-out: EC50 (antiproliferative)) was over 100 nM, the EC50 (LNCaP; Homo sapiens, 72 h, read-out: EC50 (antiproliferative)) was over 100 nM and the “binding to CDK10” value (CDK10 [4]) was “moderate binding”. For the same compound, the “CDK9 level (global proteome)” value (CDK9 [5]; 1 μM for 6 h) was “no significant effect”, the “effect of KEAP1 knockdown on cytotoxicity” value (from here on “effect of KEAP1 knockdown”) (H1299 lung cancer cells) was “no significant effect” and the EC50 (PC3; Homo sapiens, PC-3, 72 h, read-out: EC50 (antiproliferative)) was over 100 nM. For the same compound, the “effect of KEAP1 knockdown” value [6] was “no significant effect”, the CDK9 degradation (CDK9 [1]; [14]) was “none of these treatments degraded CDK9” and the “effect … on CDK9 degradation by 955” value (CDK9 [1]) was “blocks”. For the same compound, the CDK9 degradation (CDK9 [1]; short-term treatment (6 h)) was “could not”.

In the case of `CC(C)C[C@H](NC(=O)[C@H](Cc1ccccc1)NC(=O)c1cnccn1)B(O)O` [bortezomib], the “effect … on CDK9 degradation by 955” value (CDK9 [1]) is reported as “blocks”.

With `CO/C1=C\C(C)=C\[C@@H](C)[C@@H](O)[C@@H](C)C/C(C)=C/C=C/[C@H](OC)[C@@H]([C@@H](C)[C@@H](O)[C@H](C)[C@@]2(O)C[C@@H](O)[C@H](C)[C@@H](C(C)C)O2)OC1=O` [Baf-A1] the “effect … on CDK9 degradation by 955” value (CDK9 [1]) was “does not block”.

With `CC(C)[C@H](NC(=O)c1ccc2ccccc2n1)C(=O)N[C@@H](CC(=O)O)C(=O)COc1c(F)cccc1F` [QVD] the “effect … on CDK9 degradation by 955” value (CDK9 [1]) was “does not block”.

For `CCOC(=O)c1ccc(N2NC(=O)/C(=C/c3ccc([N+](=O)[O-])o3)C2=O)cc1` [PYR-41], the “effect … on CDK9 degradation by 955” value (CDK9 [1]) was “blocks”.

In the case of `COc1cc(CCC(=O)N2CCCCC2=O)cc(OC)c1OCCN1CCN(C(=O)CN2CCC(C(=O)Nc3ncc(SCc4ncc(C(C)(C)C)o4)s3)CC2)CC1` [compound 336, N-(5-(((5-(tert-butyl)oxazol-2-yl)methyl)thio)thiazol-2-yl)-1-(2-(4-(2-(2,6-dimethoxy-4-(3-oxo-3-(2-oxopiperidin-1-yl)propyl)phenoxy)ethyl)piperazin-1-yl)-2-oxoethyl)piperidine-4-carboxamide], the “effect of KEAP1 knockdown” value (H1299 lung cancer cells) is reported as “no significant effect”, the “effect of KEAP1 knockdown” value [6] is reported as “no significant effect” and the “formation of CDK9:KEAP1 ternary complex (nanoBRET)” value [7] is reported as “negligible”. For the same compound, the CDK9 degradation (CDK9 [1]; [15]) was “does not induce CDK9 degradation”.

For `CC(C)C[C@@H](C=O)NC(=O)[C@H](CC(C)C)NC(=O)[C@H](CC(C)C)NC(=O)OCc1ccccc1` [MG132] (Cbz-Leu-Leu-Leu-aldehyde), the “effect of pre-treatment on CDK10 degradation induced by 955” value (CDK10 [2]) was “blocks”, the “effect of pre-treatment … by 819” value (EML4-ALK) was “blocks” and the “effect … on CDK9 degradation by 955” value (CDK9 [1]) was “blocks”.

In the case of `CC(C)(C)c1cnc(CSc2cnc(NC(=O)C3CCN(CC(=O)NCCOCCOCCOCCNc4cccc5c4C(=O)N(C4CCC(=O)NC4=O)C5=O)CC3)s2)o1` (stereo not drawn) [THAL-SNS-032], the “selectivity of degradation among SNS-032 targets” value (CDK9 [8]) is given as “could only degrade CDK9 but not other known SNS-032 targets”.

For `COc1cc(/C=C/C(=O)N2CCC=CC2=O)cc(OC)c1OCCN1CCN(C(=O)CN2CCC(C(=O)Nc3ncc(SCc4ncc(C(C)(C)C)o4)s3)CC2)CC1` [compound 955, (E)-N-(5-(((5-(tert-butyl)oxazol-2-yl)methyl)thio)thiazol-2-yl)-1-(2-(4-(2-(2,6-dimethoxy-4-(3-oxo-3-(6-oxo-3,6-dihydropyridin-1(2H)-yl)prop-1-en-1-yl)phenoxy)ethyl)piperazin-1-yl)-2-oxoethyl)piperidine-4-carboxamide], the CDK10 degradation (CDK10 [2]) was “potently degrade CDK10”, the “downregulation of CDK9-dependent transcription” value [9] was “more potent than SNS-032” and the “CDK9 degradation after ectopic expression of Halo-tagged KEAP1” value (CDK9 [10]; KEAP1 stable knockout H1299 cells, 0.1 μM, 6 h) was “rescued CDK9 degradation”. For the same compound, the “CDK9 degradation after depleting KEAP1” value (CDK9 [10]; siRNA and CRISPR-Cas9 knock down/out of KEAP1, H1299 cells) was “blocked”, the “c-Myc and MCL-1 expression” value (c-Myc and MCL-1 [11]) was “downregulated c-Myc and MCL-1” and the CDK9 degradation (CDK9 [12]) was “potently degraded CDK9”. The “CDK9 level (global proteome)” value (CDK9 [5]; 0.1 μM for 1 h and 6 h) was “significant reduction of CDK9”, the “effect of KEAP1 knockdown” value (H1299 lung cancer cells) was “attenuated the cytotoxicity” and the “number of E3 ligases whose interaction with CDK9 is induced” value (V5-TurboID-CDK9; 293T cells expressing V5-TurboID-CDK9) was 6 E3 ligases. The “KEAP1 pulled down (immunoblot of TurboID-bait assay)” value (V5-TurboID-CDK9; 293T cells, in the presence of biotin, with vs without compound) was “significantly more KEAP1 can be pulled down”, the “potency relative to SNS-032 in downregulation of c-Myc and MCL-1 expression” value (c-Myc and MCL-1 [13]) was “about 10 fold” and the “induction of PARP cleavage” value (MOLT4 cells) was “more potent in inducing PARP cleavage than SNS-032”. For the same compound, the “competition with IA-alkyne for binding to KEAP1” value (purified KEAP1 protein) was “can compete with IA-alkyne to covalently bind to KEAP1 in a concentration-dependent manner”, the “effect of KEAP1 knockdown” value [6] was “attenuated the cytotoxicity” and the “formation of CDK9:KEAP1 ternary complex (nanoBRET)” value [7] was “can induce the formation of the CDK9:955:KEAP1 ternary complex in a dose-dependent manner”. For the same compound, the “time to almost complete degradation of CDK9” value (CDK9 [1]; 0.1 μM, time course) was at most 8 h, the CDK9 degradation (CDK9 [1]; [15]) was “can induce CDK9 degradation” and the CDK9 degradation (CDK9 [1]; short-term treatment (6 h)) was “potently degrade CDK9”. The “duration of CDK9 degradation after removal of compound from the culture” value (CDK9 [1]; washout) was “up to 18 h”.

In the case of `COc1cc(/C=C/C(=O)N2CCC=CC2=O)cc(OC)c1OCC(=O)N1CCC(c2cc(OC(C)C)c(Nc3ncc(Cl)c(Nc4ccccc4S(=O)(=O)C(C)C)n3)cc2C)CC1` [compound 819, (E)-1-(3-(4-(2-(4-(4-((5-chloro-4-((2-(isopropylsulfonyl)phenyl)amino)pyrimidin-2-yl)amino)-5-isopropoxy-2-methylphenyl)piperidin-1-yl)-2-oxoethoxy)-3,5-dimethoxyphenyl)acryloyl)-5,6-dihydropyridin-2(1H)-one], the EML4-ALK degradation (EML4-ALK; NCI-H2228 NSCLC cells) is reported as “can degrade EML4-ALK in a concentration-dependent manner”.

In the case of `NS(=O)(=O)OC[C@H]1C[C@@H](Nc2ccnc3cc(-c4cccc(SC(F)(F)F)c4)nn23)[C@H](O)[C@@H]1O` [TAK-243], the “effect … on CDK9 degradation by 955” value (CDK9 [1]) is reported as “blocks”.

In the case of `COc1cc(/C=C/C(=O)N2CCC=CC2=O)cc(OC)c1OC` [PL, (E)-1-(3-(3,4,5-trimethoxyphenyl)acryloyl)-5,6-dihydropyridin-2(1H)-one], the anti-proliferative effect (DU145; DU145, within 3 μM) is reported as “no anti-proliferative effect”, the anti-proliferative effect (22RV1; 22RV1, within 3 μM) is reported as “no anti-proliferative effect” and the anti-proliferative effect (LNCaP; within 3 μM) is reported as “no anti-proliferative effect”. The anti-proliferative effect (PC3; PC3, within 3 μM) was “no anti-proliferative effect”, the CDK9 degradation (CDK9 [1]; [14]) was “none of these treatments degraded CDK9” and the “effect … on CDK9 degradation by 955” value (CDK9 [1]) was “blocks”.

With `COC(=O)/C=C/C(=O)OC` [DMF, dimethyl fumarate] the “effect of pre-treatment … by 819” value (EML4-ALK) was “blocks” and the “effect … on CDK9 degradation by 955” value (CDK9 [1]) was “blocks”.

With `COC(=O)[C@]12CCC(C)(C)C[C@H]1[C@H]1C(=O)C=C3[C@@]4(C)C=C(C#N)C(=O)C(C)(C)[C@@H]4CC[C@@]3(C)[C@]1(C)CC2` [CDDO-ME] the “effect … on CDK9 degradation by 955” value (CDK9 [1]) was “blocks”.
